According to PubChem BioAssay AID624108 (Broad Institute, 2012):
Calls of active or inactive are those of the source. No rule for the calls is given here.

Molecular target: Glycogen synthase kinase-3 beta (Homo sapiens) (UniProt P49841)
Experiment: GSK3beta direct binders, dose response, biophysical, surface plasmon resonance, microfluidics, dry powder samples (AID 624108)
Conditions: recombinant GSK3beta, surface plasmon resonance binding

Chain of Glycogen synthase kinase-3 beta (Homo sapiens) (P49841 whole entry, looked up): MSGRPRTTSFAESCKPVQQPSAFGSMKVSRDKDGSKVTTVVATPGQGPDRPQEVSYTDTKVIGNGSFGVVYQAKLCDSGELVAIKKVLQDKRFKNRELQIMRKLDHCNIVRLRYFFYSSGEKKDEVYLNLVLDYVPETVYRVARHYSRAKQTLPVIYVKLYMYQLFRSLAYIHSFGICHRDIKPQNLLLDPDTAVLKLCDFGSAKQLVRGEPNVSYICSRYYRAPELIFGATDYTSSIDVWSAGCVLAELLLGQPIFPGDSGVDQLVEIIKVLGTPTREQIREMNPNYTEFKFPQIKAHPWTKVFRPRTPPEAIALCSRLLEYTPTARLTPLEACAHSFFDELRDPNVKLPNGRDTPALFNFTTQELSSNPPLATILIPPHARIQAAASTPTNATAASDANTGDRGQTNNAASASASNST

SMILES	Kd
Cc1[nH]nc2nc3c(cc12)C(=O)CC(C)(C)C3	> 5000 nM (inactive)
COc1ccccc1C1C2=C(CC3(CCCCC3)CC2=O)Nc2n[nH]c(C)c21 (configuration not stated)	> 5000 nM (inactive)
Cc1[nH]nc2c1[C@H](c1ccccc1C(F)(F)F)C1=C(CC(C)(C)CC1=O)N2	15 nM
Cc1[nH]nc2c1C(c1ccc(C(F)(F)F)cc1)C1=C(CC(C)(C)CC1=O)N2 (configuration not stated)	368 nM
COc1ccccc1C1C2=C(CC(C)(C)CC2=O)Nc2n[nH]c(-c3ccccc3)c21 (configuration not stated)	inactive
CC1(C)CC(=O)C2=C(C1)Nc1n[nH]c(C(F)(F)F)c1C2c1c(F)cccc1F (configuration not stated)	> 5000 nM (inactive)
CC1(C)CC(=O)C2=C(C1)Nc1n[nH]c(C(F)(F)F)c1C2c1ccccc1C(F)(F)F (configuration not stated)	122 nM
COc1ccccc1-c1c2c(nc3n[nH]c(C)c13)CCC2=O	> 5000 nM (inactive)
COc1ccccc1C1C2=C(CC(C)(C)CC2=O)Nc2n[nH]c(C(C)C)c21 (configuration not stated)	inactive
CC1(C)CC(=O)C2=C(C1)Nc1n[nH]c(C(F)(F)F)c1C2c1ccccc1 (configuration not stated)	113 nM
Cc1[nH]nc2c1C(c1ccc3c(c1)OCO3)C1=C(CC(C)(C)CC1=O)N2 (configuration not stated)	inactive
COc1ccccc1C1C2=C(CC(C)(C)CC2=O)Nc2ccccc21 (configuration not stated)	> 5000 nM (inactive)
Cc1[nH]nc2c1[C@@H](c1ccccc1C(F)(F)F)C1=C(CC(C)(C)CC1=O)N2	> 5000 nM (inactive)
CC1(C)CC(=O)C2=C(C1)Nc1n[nH]c(C(F)(F)F)c1C2c1cc(F)ccc1F (configuration not stated)	424 nM
CC1(C)CC(=O)C2=C(C1)Nc1n[nH]c(C(F)(F)F)c1C2c1cccc(F)c1C(F)(F)F (configuration not stated)	822 nM
CC1(C)CC(=O)/C(=C\c2cccc(F)c2C(F)(F)F)C(=Nc2cc(C(F)(F)F)[nH]n2)C1	40 nM
COc1ccccc1C1C2=C(CC(C)(C)CC2=O)Nc2n[nH]c(C(F)(F)F)c21 (configuration not stated)	102 nM
Cc1[nH]nc2c1C(c1cccc3nonc13)C1=C(CC(C)(C)CC1=O)N2 (configuration not stated)	> 5000 nM (inactive)
COc1ccccc1C1C2=C(CC(C)(C)CC2=O)Nc2onc(C)c21 (configuration not stated)	> 5000 nM (inactive)
Cc1[nH]nc2c1C(C)(c1ccccc1)C1=C(CC(C)(C)CC1=O)N2 (configuration not stated)	149 nM

SMILES	Kd
COc1ccccc1C1C2=C(CC(C)(C)CC2=O)Nc2[nH]ncc21 (configuration not stated)	173 nM
Cc1[nH]nc2c1C(c1cccs1)C1C(=O)CC(C)(C)CC1=N2 (configuration not stated)	420 nM
COc1ccccc1[C@H]1C2=C(CC(C)(C)CC2=O)Nc2n[nH]c(C(F)(F)F)c21	inactive
Cc1[nH]nc2c1C(c1cccc(C(F)(F)F)c1)C1=C(CC(C)(C)CC1=O)N2 (configuration not stated)	inactive
CC1(C)CC(=O)C2=C(C1)Nc1n[nH]c(C(F)(F)F)c1C2c1cc(F)ccc1OC(F)(F)F (configuration not stated)	627 nM
COc1ccccc1/C=C1\C(=O)CC(C)(C)CC1=Nc1cc(C(F)(F)F)[nH]n1	> 5000 nM (inactive)
CC1(C)CC(=O)C2=C(C1)Nc1n[nH]c(C(F)(F)F)c1C2c1cc(F)ccc1C(F)(F)F (configuration not stated)	150 nM
CCc1[nH]nc2c1C(c1ccccc1OC)C1=C(CC(C)(C)CC1=O)N2 (configuration not stated)	> 5000 nM (inactive)
COc1ccccc1C1C2=C(CC(C)(C)CC2=O)Nc2n[nH]c(C(C)(C)C)c21 (configuration not stated)	585 nM
CC1(C)CC(=O)C2=C(C1)Nc1n[nH]c(C(F)(F)F)c1C2c1ccccc1F (configuration not stated)	> 5000 nM (inactive)
Cc1[nH]nc2nc3c(c(-c4cccs4)c12)C(=O)CC(C)(C)C3	24 nM
CC1(C)CC(=O)/C(=C\c2ccccc2C(F)(F)F)C(=Nc2cc(C(F)(F)F)[nH]n2)C1	> 5000 nM (inactive)
CC1(C)CC(=O)C2=C(C1)Nc1n[nH]c(C(F)(F)F)c1C2(C)c1ccccc1 (configuration not stated)	> 5000 nM (inactive)
COc1ccccc1C1C2=C(CCC(C)(C)C2=O)Nc2n[nH]c(C)c21 (configuration not stated)	305 nM
COc1ccccc1C1C(C(C)=O)=C(C)Nc2n[nH]c(C)c21 (configuration not stated)	> 5000 nM (inactive)
CC1(C)CC(=O)C2=C(C1)Nc1n[nH]c(C(F)(F)F)c1C2c1ccc(F)cc1C(F)(F)F (configuration not stated)	202 nM
COc1ccccc1[C@@H]1C2=C(CC(C)(C)CC2=O)Nc2n[nH]c(C(F)(F)F)c21	31 nM
Cc1[nH]nc2nc3c(c(-c4ccccc4)c12)C(=O)CC(C)(C)C3	13 nM
COc1ccccc1C1C2=C(CCCC2=O)Nc2n[nH]c(C)c21 (configuration not stated)	> 5000 nM (inactive)

Further lines, results first:

Kd	SMILES
inactive	Cc1ccc(C2C3=C(CC(C)(C)CC3=O)Nc3n[nH]c(C)c32)cc1 (configuration not stated)
802 nM	Cc1cccc(C2C3=C(CC(C)(C)CC3=O)Nc3n[nH]c(C)c32)c1 (configuration not stated)
> 5000 nM (inactive)	Cc1[nH]nc2c1C(c1ccccc1C#N)C1=C(CC(C)(C)CC1=O)N2 (configuration not stated)
> 5000 nM (inactive)	Cc1[nH]nc2c1[C@@H](c1cccs1)C1=C(CC(C)(C)CC1=O)N2
> 5000 nM (inactive)	Cc1[nH]nc2c1C(c1ccc(Br)cn1)C1=C(CC(C)(C)CC1=O)N2 (configuration not stated)
40 nM	Cc1[nH]nc2c1C(c1ccccc1Br)C1=C(CC(C)(C)CC1=O)N2 (configuration not stated)
421 nM	Cc1[nH]nc2c1[C@H](c1cccs1)C1=C(CC(C)(C)CC1=O)N2
inactive	Cc1[nH]nc2c1C(c1ccc(C#N)cc1)C1=C(CC(C)(C)CC1=O)N2 (configuration not stated)
520 nM	Cc1[nH]nc2c1C(c1ccc(Cl)s1)C1=C(CC(C)(C)CC1=O)N2 (configuration not stated)
> 5000 nM (inactive)	Cc1[nH]nc2c1C(C1CCCCC1)C1=C(CC(C)(C)CC1=O)N2 (configuration not stated)
> 5000 nM (inactive)	Cc1[nH]nc2c1C(C1CC1)C1=C(CC(C)(C)CC1=O)N2 (configuration not stated)
> 5000 nM (inactive)	Cc1[nH]nc2c1C(c1ccn[nH]1)C1=C(CC(C)(C)CC1=O)N2 (configuration not stated)
inactive	Cc1[nH]nc2c1C(c1cccc(F)c1)C1=C(CC(C)(C)CC1=O)N2 (configuration not stated)
223 nM	Cc1ccccc1C1C2=C(CC(C)(C)CC2=O)Nc2n[nH]c(C)c21 (configuration not stated)
> 5000 nM (inactive)	Cc1[nH]nc2c1C(C)C1=C(CC(C)(C)CC1=O)N2 (configuration not stated)
270 nM	Cc1[nH]nc2c1C(c1cccnc1)C1=C(CC(C)(C)CC1=O)N2 (configuration not stated)
49 nM	Cc1[nH]nc2c1C(c1ccccc1C(F)(F)F)C1=C(CC(C)(C)CC1=O)N2 (configuration not stated)
inactive	COc1ccc(C2C3=C(CC(C)(C)CC3=O)Nc3n[nH]c(C)c32)cc1 (configuration not stated)
> 5000 nM (inactive)	Cc1[nH]nc2c1C(c1ccc(F)cc1Cl)C1=C(CC(C)(C)CC1=O)N2 (configuration not stated)
390 nM	Cc1[nH]nc2c1C(c1ccccn1)C1=C(CC(C)(C)CC1=O)N2 (configuration not stated)
> 5000 nM (inactive)	COc1cccc(C2C3=C(CC(C)(C)CC3=O)Nc3n[nH]c(C)c32)c1 (configuration not stated)
331 nM	Cc1[nH]nc2c1C(c1cccc(C#N)c1)C1=C(CC(C)(C)CC1=O)N2 (configuration not stated)
450 nM	Cc1[nH]nc2c1C(c1ccsc1)C1=C(CC(C)(C)CC1=O)N2 (configuration not stated)
inactive	Cc1[nH]nc2c1C(c1ccc(Cl)cc1)C1=C(CC(C)(C)CC1=O)N2 (configuration not stated)
890 nM	Cc1[nH]nc2c1C(c1ccccc1Cl)C1=C(CC(C)(C)CC1=O)N2 (configuration not stated)
360 nM	Cc1[nH]nc2c1C(c1cccc(Cl)c1)C1=C(CC(C)(C)CC1=O)N2 (configuration not stated)
inactive	Cc1[nH]nc2c1C(c1ccc(F)cc1)C1=C(CC(C)(C)CC1=O)N2 (configuration not stated)
60 nM	COc1ccccc1C1C2=C(CC(C)(C)CC2=O)Nc2n[nH]c(C)c21 (configuration not stated)
